The source of these data is patent US9023851B2 (Merck Patent GmbH, priority 2010, dated 2015).

Data set [1] concerns the target T1, BTK (Homo sapiens, UniProt Q06187).
T1 construct: purchased Carna Bioscience, Kobe, Japan
As to the kind of experiment: BTK enzymatic assay (Caliper LifeSciences technology). It is filed as biochemical. The protocol:
Enzymatic Assays Using the Caliper LifeSciences Technology
The assays described here are performed on the Caliper Life Sciences LC3000 system This technology provides data on enzyme activity via measurement of the relative amounts of phosphorylated or unphosphorylated fluorescently labelled substrate peptide at the end of an enzymatic reaction. These different states of peptide are resolved by applying a potential difference across the sample. The presence of the charged phosphate group on the product (as opposed to the substrate) causes a different peptide mobility between the two peptides. This is visualized by excitation of the fluorescent label on the substrate and product peptides and represented as peaks within the analysis software.
In order to measure inhibitor activity of kinase inhibitors on this technology, a TTP Mosquito liquid handling instrument is used to place 0.25 ul of the appropriate concentration of inhibitor in 100% DMSO (for a dose response curve calculation) into each well of a 384-well plate. To this reaction components are added to a final volume of 25 ul. The table below indicates the sequences and concentrations for the assays described in this report. Standard components are 1 mM DTT (Sigma, D0632), 1 mM MgCl2 (Sigma, M1028), 100 mM HEPES pH 7.5 (Calbiochem, 391338), 0.015% Brij-35 (Sigma, B4184).
The reaction is incubated for 90 min at 25 C, and then stopped by the addition of 70 ul of Stop buffer (100 mM HEPES pH 7.5, 0.015% Brij-35, 10 mM EDTA (Sigma, E7889)).
The plate is read on a Caliper LC 3000 in an Off-Chip mobility shift assay format, on a 12-sipper chip. Unphosphorylated substrate and phosphorylated product peptide resolve as separate peaks allowing direct measurement of percentage of conversion of substrate to product. The percent conversion can be plotted against concentration of inhibitor to produce a sigmoidal dose response curve, from which an IC50 can be calculated using GeneData Condoseo or a similar product. Cellular activity assays

For data set [2], the target named is T2, KDR (Homo sapiens, UniProt P35968).
T2 construct: purchased BPS Bioscience, CA, USA
T2 sequence (P35968 20-1356): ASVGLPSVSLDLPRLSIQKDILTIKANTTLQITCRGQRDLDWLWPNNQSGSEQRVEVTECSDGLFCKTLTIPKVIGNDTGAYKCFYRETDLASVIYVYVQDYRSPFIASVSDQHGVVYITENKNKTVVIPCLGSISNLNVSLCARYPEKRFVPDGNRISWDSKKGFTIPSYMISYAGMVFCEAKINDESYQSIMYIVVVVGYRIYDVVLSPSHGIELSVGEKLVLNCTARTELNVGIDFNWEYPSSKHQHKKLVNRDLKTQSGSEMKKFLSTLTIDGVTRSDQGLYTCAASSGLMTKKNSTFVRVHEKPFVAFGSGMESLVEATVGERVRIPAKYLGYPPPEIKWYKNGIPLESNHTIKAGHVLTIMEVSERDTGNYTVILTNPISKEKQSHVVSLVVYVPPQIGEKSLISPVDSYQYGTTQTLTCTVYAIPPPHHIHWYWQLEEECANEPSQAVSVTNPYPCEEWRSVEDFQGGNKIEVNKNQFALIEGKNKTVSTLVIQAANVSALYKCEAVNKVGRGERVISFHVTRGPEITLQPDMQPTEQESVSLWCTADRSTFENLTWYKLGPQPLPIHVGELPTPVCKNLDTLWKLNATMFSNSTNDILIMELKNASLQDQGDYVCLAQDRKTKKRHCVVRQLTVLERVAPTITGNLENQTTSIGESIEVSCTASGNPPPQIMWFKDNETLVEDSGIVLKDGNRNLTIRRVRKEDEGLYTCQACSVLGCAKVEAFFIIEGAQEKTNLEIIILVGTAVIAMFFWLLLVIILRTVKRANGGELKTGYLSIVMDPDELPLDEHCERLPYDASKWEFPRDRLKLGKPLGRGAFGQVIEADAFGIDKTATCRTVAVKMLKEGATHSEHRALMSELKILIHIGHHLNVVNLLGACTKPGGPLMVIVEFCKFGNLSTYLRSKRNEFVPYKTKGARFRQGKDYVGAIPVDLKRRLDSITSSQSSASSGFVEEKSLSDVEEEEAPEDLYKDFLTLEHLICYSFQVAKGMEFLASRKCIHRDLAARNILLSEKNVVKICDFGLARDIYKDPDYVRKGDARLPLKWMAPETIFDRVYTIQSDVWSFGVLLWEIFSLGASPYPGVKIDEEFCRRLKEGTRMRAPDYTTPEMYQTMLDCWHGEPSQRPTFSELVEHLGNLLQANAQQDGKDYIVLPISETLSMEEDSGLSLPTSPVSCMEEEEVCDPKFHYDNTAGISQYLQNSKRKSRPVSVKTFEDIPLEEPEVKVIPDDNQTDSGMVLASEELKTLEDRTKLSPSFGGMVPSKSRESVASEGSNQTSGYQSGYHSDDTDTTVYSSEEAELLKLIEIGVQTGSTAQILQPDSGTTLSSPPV
As to the kind of experiment: KDR enzymatic assay (Caliper LifeSciences technology). In kind it is biochemical. An outline of the steps:
(§1)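 Off-chip mobility-shift assay quantifying conversion of a fluorescent peptide substrate to phosphorylated product. Reactions in 100 mM HEPES pH 7.5, 1 mM DTT, 1 mM MgCl2, 0.015% Brij-35, 90 min at 25 C, stopped with EDTA. IC50 from sigmoidal fit of percent conversion versus inhibitor concentration.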

For data set [3], the target named is T3, Src (Homo sapiens, UniProt P12931).
T3 construct: purchased Carna Bioscience, Kobe, Japan
T3 sequence (P12931 whole entry): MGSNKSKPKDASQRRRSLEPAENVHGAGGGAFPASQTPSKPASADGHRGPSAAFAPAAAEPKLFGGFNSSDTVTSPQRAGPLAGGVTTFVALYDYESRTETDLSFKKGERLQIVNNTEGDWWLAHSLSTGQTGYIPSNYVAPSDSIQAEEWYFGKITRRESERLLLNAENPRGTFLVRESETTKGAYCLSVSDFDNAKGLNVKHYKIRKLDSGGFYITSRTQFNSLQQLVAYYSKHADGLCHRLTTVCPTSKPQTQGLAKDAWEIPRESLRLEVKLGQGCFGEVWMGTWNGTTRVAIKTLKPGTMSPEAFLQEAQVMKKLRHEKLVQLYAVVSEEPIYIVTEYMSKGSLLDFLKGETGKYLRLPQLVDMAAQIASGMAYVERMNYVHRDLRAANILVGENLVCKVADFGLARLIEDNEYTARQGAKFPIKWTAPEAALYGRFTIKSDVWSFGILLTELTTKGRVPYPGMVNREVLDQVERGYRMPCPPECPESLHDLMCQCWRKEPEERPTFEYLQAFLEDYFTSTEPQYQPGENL
Kind of data set: cSrc enzymatic assay (Caliper LifeSciences technology). It is filed as biochemical. Put shortly: as §1

For data set [4], the system named is Ramos cells. As to the kind of experiment: BCR crosslinking-induced BLNK phosphorylation (BLNK cell assay). In kind it is cell-based. To be noted: Homo sapiens. The method, then: 1. BCR Crosslinking-Induced BLNK Phosphorylation
Ramos cells incubated overnight in IMDM medium containing 5% FCS were resuspended in IMDM medium without serum (3.3×10^6 cells/ml). 90 μl of cell suspension (300′000 cells) were incubated with 10 μl of SYK inhibitors (in 3% DMSO) for 20 minutes at 37° C., in 96 well plates. After preincubation with inhibitors, cells were activated with 10 μg/ml of goat antihuman anti-IgM for 10 minutes at 37° C. After stimulation, cells were fixed by addition of 80 μl of 4% paraformaldehyde followed by a 10 minutes incubation at RT and […] in 0.1% Triton X-100 in PBS. BLNK phosphorylation was detected by flow cytometry after staining of the cells with anti-BLNK-pY84-PE antibodies from BD pharmingen, for 45 minutes at RT. […]

Data set [5] addresses T4, Syk (Homo sapiens, UniProt P43405).
T4 construct: purchased BPS Bioscience, CA, USA
Kind of data set: Syk enzyme assay (flash plate / Caliper mobility shift). It is filed as biochemical. An outline of the steps: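 Flashplate format used 2.5 nM SYK, 400 nM biotinylated peptide and 10 µM ATP with 33P tracer, pH 7.5, 1 h at 30 °C, read by radioactivity. Caliper format ran 90 min at 25 °C in HEPES pH 7.5, reading percent peptide conversion by mobility shift. IC50s came from dose-response curves.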

The target in data set [6] is T5, ZAP-70 (Homo sapiens, UniProt P43403).
T5 construct: purchased BPS Bioscience, CA, USA
T5 sequence (P43403 1-619): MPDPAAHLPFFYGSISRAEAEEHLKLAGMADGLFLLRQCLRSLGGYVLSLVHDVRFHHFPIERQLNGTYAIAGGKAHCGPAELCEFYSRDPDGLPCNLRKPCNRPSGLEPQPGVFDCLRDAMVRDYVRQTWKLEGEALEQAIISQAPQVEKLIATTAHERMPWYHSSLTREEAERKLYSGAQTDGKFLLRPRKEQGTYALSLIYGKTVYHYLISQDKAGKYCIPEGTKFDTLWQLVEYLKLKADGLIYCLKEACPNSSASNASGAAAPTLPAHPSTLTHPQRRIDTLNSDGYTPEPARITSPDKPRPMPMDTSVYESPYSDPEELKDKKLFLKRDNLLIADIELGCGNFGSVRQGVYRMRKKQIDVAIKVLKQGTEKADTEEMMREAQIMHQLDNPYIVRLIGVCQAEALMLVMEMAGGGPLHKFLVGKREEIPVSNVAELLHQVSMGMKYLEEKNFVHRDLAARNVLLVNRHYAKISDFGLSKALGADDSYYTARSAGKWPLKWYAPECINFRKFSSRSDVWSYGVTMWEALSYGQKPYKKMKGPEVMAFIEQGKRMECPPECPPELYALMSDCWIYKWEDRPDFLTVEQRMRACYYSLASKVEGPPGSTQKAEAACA
As to the kind of experiment: Zap70 enzymatic assay (Caliper LifeSciences technology). It is filed as biochemical. An outline of the steps:
as §1

Data set [7] deals with 3LL lung carcinoma. To be noted: s.c. 3LL lung carcinoma in mice; cited from earlier work.
For data set [8] the following is noted: RA Phase II studies in humans; cited from earlier work.
For data set [9] the following is noted: murine model of RA, cited from earlier work.
Data set [10] concerns the target GCN2 (Homo sapiens, UniProt Q9P2K8). Kind of data set: GCN2 kinase TR-FRET (Lanthascreen) assay. It is filed as biochemical. An excerpt:
GCN2: Assay Principle & Conditions
This assay can quantificate the activity of the serin kinase GCN2 (general control non-derepressible-2).
This kinase is involved in the stress metabolism of cells. It is activated upon starvation (amino acid depletion). Its natural substrate is eIF2a (eukaryotic initiation factor 2 alpha subunit), a translation factor, which gets activated (phosphorylated) by GCN2 in case of an amino acid bottleneck in the cells. This in turn leads to a halt of the protein synthesis. Inhibition of GCN2 results in stopping this mechanism: The cell can not stop protein production upon “starvation” stress.
The assay is run in two steps: the enzymatic reaction and the detection step. In the first step GCN2 is incubated with 10 μM ATP and 80 nM of the GFP-labelled substrate eIF2alpha at room temperature.
The enzymatic reaction is stopped by addition of EDTA. The amount of phosphorylated eIF2alpha is determined by TR-FRET (Lanthascreen): A complex is formed consisting of antibody and GFP labelled phospho-eIF2a, which allows a FRET upon exitation at 340 nm.
The GCN2-activity is directly proportional to the ratio of fluorescence units at the emission wavelengthh 520 nm (phosphopeptide-sensitive wavelength=emission of GFP) to the units at 495 nm (reference wavelength=emission of Terbium-chelate).
Assay Procedure • 4 uL enzyme solution (in assay buffer) • 1.5 uL compound (in cmpd dilution buffer/6.3% DMSO) • Incubation 20 min at RT • 4 uL substrate/ATP mix (in assay buffer) • Incubation 90 min at RT • 10 uL stop/detection mix (in antibody dilution buffer) • Incubation 60 min at RT • Readout Lanthascreen 340/495/5204

T1 sequence (Q06187 whole entry): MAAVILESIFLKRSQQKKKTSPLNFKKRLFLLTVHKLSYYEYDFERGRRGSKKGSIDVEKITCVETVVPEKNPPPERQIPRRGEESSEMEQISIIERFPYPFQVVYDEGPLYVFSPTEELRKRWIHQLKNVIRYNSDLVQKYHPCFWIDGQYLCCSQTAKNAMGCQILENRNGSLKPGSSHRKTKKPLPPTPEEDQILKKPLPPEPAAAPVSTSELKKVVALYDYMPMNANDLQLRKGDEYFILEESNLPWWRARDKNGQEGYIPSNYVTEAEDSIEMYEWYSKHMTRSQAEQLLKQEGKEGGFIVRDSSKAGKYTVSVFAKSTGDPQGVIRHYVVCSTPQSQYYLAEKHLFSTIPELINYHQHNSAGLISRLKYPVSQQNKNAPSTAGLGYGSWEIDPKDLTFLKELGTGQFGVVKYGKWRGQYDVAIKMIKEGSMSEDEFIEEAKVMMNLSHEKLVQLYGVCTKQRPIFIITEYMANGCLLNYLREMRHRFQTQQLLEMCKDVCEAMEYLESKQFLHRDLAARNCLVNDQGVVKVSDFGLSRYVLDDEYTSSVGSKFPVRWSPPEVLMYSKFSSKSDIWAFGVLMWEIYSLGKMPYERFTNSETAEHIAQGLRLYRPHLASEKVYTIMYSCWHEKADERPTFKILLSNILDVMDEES
Chain of GCN2 (Q9P2K8 whole entry, species assumed): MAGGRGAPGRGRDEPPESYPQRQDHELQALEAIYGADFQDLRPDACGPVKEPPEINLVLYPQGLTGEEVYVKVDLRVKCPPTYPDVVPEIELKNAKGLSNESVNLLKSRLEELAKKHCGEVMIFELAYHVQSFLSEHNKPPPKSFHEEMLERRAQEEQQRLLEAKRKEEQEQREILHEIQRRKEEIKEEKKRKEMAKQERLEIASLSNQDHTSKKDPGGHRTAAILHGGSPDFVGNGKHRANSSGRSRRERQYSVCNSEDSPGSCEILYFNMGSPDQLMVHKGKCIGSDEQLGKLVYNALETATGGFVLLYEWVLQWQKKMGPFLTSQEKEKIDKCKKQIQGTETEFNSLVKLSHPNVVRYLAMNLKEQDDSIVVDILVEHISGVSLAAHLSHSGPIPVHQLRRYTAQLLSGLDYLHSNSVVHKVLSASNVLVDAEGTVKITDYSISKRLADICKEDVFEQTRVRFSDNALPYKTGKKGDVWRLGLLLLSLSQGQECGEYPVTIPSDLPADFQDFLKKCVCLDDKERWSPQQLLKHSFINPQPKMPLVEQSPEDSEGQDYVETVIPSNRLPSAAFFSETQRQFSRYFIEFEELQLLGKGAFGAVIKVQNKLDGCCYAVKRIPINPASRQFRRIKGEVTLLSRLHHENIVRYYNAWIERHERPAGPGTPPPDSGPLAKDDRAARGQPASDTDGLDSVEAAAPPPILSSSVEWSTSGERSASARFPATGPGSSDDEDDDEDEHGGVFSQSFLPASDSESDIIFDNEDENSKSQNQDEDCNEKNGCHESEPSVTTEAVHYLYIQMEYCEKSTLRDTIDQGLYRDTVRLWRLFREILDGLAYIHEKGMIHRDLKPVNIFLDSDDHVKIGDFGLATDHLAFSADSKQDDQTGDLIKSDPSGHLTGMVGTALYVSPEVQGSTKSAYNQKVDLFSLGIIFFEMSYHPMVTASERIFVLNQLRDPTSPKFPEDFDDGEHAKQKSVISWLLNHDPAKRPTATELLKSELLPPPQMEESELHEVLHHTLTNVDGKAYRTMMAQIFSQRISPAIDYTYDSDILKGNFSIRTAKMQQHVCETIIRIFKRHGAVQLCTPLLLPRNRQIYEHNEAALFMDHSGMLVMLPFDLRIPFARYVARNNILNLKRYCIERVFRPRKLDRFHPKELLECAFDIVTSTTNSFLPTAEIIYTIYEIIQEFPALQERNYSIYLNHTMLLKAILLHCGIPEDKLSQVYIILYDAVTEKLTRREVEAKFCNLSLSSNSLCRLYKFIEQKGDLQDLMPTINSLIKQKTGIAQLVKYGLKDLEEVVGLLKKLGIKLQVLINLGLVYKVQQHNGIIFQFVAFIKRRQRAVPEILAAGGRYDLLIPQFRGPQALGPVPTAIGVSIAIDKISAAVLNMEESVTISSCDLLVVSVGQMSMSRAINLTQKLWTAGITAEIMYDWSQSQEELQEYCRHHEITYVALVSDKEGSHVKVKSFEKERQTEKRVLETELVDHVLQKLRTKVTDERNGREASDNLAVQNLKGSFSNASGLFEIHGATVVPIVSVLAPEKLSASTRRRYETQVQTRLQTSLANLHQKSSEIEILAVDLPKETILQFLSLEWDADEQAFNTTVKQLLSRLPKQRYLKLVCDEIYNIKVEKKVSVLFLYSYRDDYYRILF

As to `COc1cc(Nc2nc3c(-c4cccnc4)nccn3n2)cc(OC)c1` [Example C19, (3,5-Dimethoxy-phenyl)-(8-pyridin-3-yl-[1,2,4]triazolo[1,5-a]pyrazin-2-yl)-amine], the IC50 was 3 to 50 µM in data set [1]; 0.3 to 3 µM in data set [2]; 0.3 to 3 µM in data set [3]; 3 to 50 µM in [4]; less than 0.3 µM in [5]; 3 to 50 µM in [6].
On to `N=C(NO)NCC[C@H](N)C(=O)O` [N-hydroxy-nor-L-Arg], for which the tumor growth entry in data set [7] was “blocks growth of s.c. 3LL lung carcinoma in mice”.
`c1ccc(Cn2ncc3ccc(Nc4nc5c(-c6nccs6)nccn5n4)cc32)cc1` [Example C24, (1-Benzyl-1H-indazol-6-yl)-(8-thiazol-2-yl-[1,2,4]triazolo[1,5-a]pyrazin-2-yl)-amine]: the IC50 in data set [1] was in the range of 3 to 50 µM; in data set [5] it was 0.3 to 3 µM; in data set [6], 3 to 50 µM.
Consider `c1ccc(Nc2nc3c(-c4nccs4)nccn3n2)cc1` [Example C14, Phenyl-(8-thiazol-2-yl-[1,2,4]triazolo[1,5-a]pyrazin-2-yl)-amine], for which the IC50 in [1], in data set [2], in data set [3], in data set [5] and in data set [6] was 3 to 50 µM each time.
Consider `COc1cc(Nc2nc3c(-c4ccccc4)nccn3n2)cc(OC)c1` [Example C8, (3,5-Dimethoxy-phenyl)-(8-phenyl-[1,2,4]triazolo[1,5-a]pyrazin-2-yl)-amine], for which the results for the IC50 in data set [1], in data set [2] and in data set [5] were 3 to 50 µM, less than 0.3 µM and less than 0.3 µM, respectively.
Consider `COc1cc(Nc2ncc(F)c(Nc3ccc4c(n3)NC(=O)C(C)(C)O4)n2)cc(OC)c1OC` [Example R406], for which, in data set [8], the “efficacy (ACR scores)” value was “efficacy (ACR scores improvement)” and the tolerability result is recorded as “good tolerability”. Besides, the clinical scores result in [9] (orally available Syk inhibitor) is listed as “significant improvement of clinical scores”. Further, the “serum cytokine concentrations and bone erosion” value in [9] was “significantly reduced serum cytokine concentrations, as well as bone erosion”.
On to `COc1ccc(Nc2nc3c(-c4cccnc4)nccn3n2)cc1OC` [Example E10], for which the IC50 in [10] is less than 10 µM.
For `O=C1Nc2cc(Nc3nc4c(-c5nccs5)nccn4n3)ccc2OC1(F)F` [Example C6, 2,2-Difluoro-6-(8-thiazol-2-yl-[1,2,4]triazolo[1,5-a]pyrazin-2-ylamino)-4H-benzo[1,4]oxazin-3-one], the IC50 in [1], in data set [2], in data set [3] and in data set [5] was 3 to 50 µM in each case.
